Test system: 485368-065-R3-J5-PDC spheroids with HUVEC/MSC, viability
Test: Anticancer human tumor 485368-065-R3-J5-PDC patient-derived pancreatic carcinoma cell line growth inhibition [RAS]
Conditions: for IC50: curve of first compound; for viability, T/C: stronger effect = lower value
How it was run: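 Multi-cell-type spheroids: tumor cells plus HUVEC endothelial cells and mesenchymal stem cells. RAS-pathway inhibitors were combined with targeted agents, each dosed in half-log steps down from clinical Cmax, or from 10 microM when Cmax was unknown.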

[1] = second compound 0.000949 µM, first compound 0.0316 µM
[2] = second compound 0.000949 µM, first compound 0.1 µM
[3] = second compound 0.000949 µM, first compound 0.316 µM
[4] = second compound 0.000949 µM, first compound 1 µM
[5] = second compound 0.000949 µM, first compound 3.16 µM
[6] = second compound 0.000949 µM, first compound 10 µM
[7] = second compound 0.003 µM, first compound 0.0316 µM
[8] = second compound 0.003 µM, first compound 0.1 µM
[9] = second compound 0.003 µM, first compound 0.316 µM
[10] = second compound 0.003 µM, first compound 1 µM
[11] = second compound 0.003 µM, first compound 3.16 µM
[12] = second compound 0.003 µM, first compound 10 µM
[13] = second compound 0.00949 µM, first compound 0.0316 µM
[14] = second compound 0.00949 µM, first compound 0.1 µM
[15] = second compound 0.00949 µM, first compound 0.316 µM
[16] = second compound 0.00949 µM, first compound 1 µM
[17] = second compound 0.00949 µM, first compound 3.16 µM
[18] = second compound 0.00949 µM, first compound 10 µM
[19] = second compound 0.03 µM, first compound 0.0316 µM
[20] = second compound 0.03 µM, first compound 0.1 µM
[21] = second compound 0.03 µM, first compound 0.316 µM
[22] = second compound 0.03 µM, first compound 1 µM
[23] = second compound 0.03 µM, first compound 3.16 µM
[24] = second compound 0.03 µM, first compound 10 µM
[25] = second compound 0.0949 µM, first compound 0.0316 µM
[26] = second compound 0.0949 µM, first compound 0.1 µM
[27] = second compound 0.0949 µM, first compound 0.316 µM
[28] = second compound 0.0949 µM, first compound 1 µM
[29] = second compound 0.0949 µM, first compound 3.16 µM
[30] = second compound 0.0949 µM, first compound 10 µM
[31] = second compound 0.3 µM, first compound 0.0316 µM
[32] = second compound 0.3 µM, first compound 0.1 µM
[33] = second compound 0.3 µM, first compound 0.316 µM
[34] = second compound 0.3 µM, first compound 1 µM
[35] = second compound 0.3 µM, first compound 3.16 µM
[36] = second compound 0.3 µM, first compound 10 µM
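Also: spheroids exposed to agents for seven days before readout.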

## CC(C)NCC(C(=O)N1CCN(c2ncnc3c2C(C)CC3O)CC1)c1ccc(Cl)cc1 (stereo unspecified) + CCn1c(-c2cc(N3CCN(C)CC3)cnc2C(C)OC)c2c3cc(ccc31)-c1csc(n1)CC(NC(=O)C1CC1C)C(=O)N1CCCC(N1)C(=O)OCC(C)(C)C2
Second compound 0.000949 µM
  IC50: < 0.0316 µM
Second compound 0.003 µM
  IC50: < 0.0316 µM
Second compound 0.00949 µM
  IC50: < 0.0316 µM
Second compound 0.03 µM
  IC50: < 0.0316 µM
Second compound 0.0949 µM
  IC50: < 0.0316 µM
Second compound 0.3 µM
  IC50: < 0.0316 µM
[1]
  viability, T/C: 40.8%
[2]
  viability, T/C: 36.3%
[3]
  viability, T/C: 29.3%
[4]
  viability, T/C: 23.7%
[5]
  viability, T/C: 18.2%
[6]
  viability, T/C: 16.4%
[7]
  viability, T/C: 22.7%
[8]
  viability, T/C: 21.8%
[9]
  viability, T/C: 17.9%
[10]
  viability, T/C: 14.6%
[11]
  viability, T/C: 11.9%
[12]
  viability, T/C: 8.84%
[13]
  viability, T/C: 15.5%
[14]
  viability, T/C: 16.6%
[15]
  viability, T/C: 15.6%
[16]
  viability, T/C: 14%
[17]
  viability, T/C: 10.2%
[18]
  viability, T/C: 7.3%
[19]
  viability, T/C: 11.7%
[20]
  viability, T/C: 13.6%
[21]
  viability, T/C: 12.6%
[22]
  viability, T/C: 10.5%
[23]
  viability, T/C: 7.29%
[24]
  viability, T/C: 6.75%
[25]
  viability, T/C: 10.1%
[26]
  viability, T/C: 9.26%
[27]
  viability, T/C: 7.76%
[28]
  viability, T/C: 7.82%
[29]
  viability, T/C: 7.22%
[30]
  viability, T/C: 6.12%
[31]
  viability, T/C: 8.98%
[32]
  viability, T/C: 7.69%
[33]
  viability, T/C: 8.06%
[34]
  viability, T/C: 7.28%
[35]
  viability, T/C: 6.22%
[36]
  viability, T/C: 5.13%

## CC(C)n1nc(-c2ccc3oc(N)nc3c2)c2c(N)ncnc21 + CCn1c(-c2cc(N3CCN(C)CC3)cnc2C(C)OC)c2c3cc(ccc31)-c1csc(n1)CC(NC(=O)C1CC1C)C(=O)N1CCCC(N1)C(=O)OCC(C)(C)C2
Second compound 0.000949 µM
  IC50: < 0.000316 µM
Second compound 0.003 µM
  IC50: < 0.000316 µM
Second compound 0.00949 µM
  IC50: < 0.000316 µM
Second compound 0.03 µM
  IC50: < 0.000316 µM
Second compound 0.0949 µM
  IC50: < 0.000316 µM
Second compound 0.3 µM
  IC50: < 0.000316 µM
Second compound 0.000949 µM, first compound 0.000316 µM
  viability, T/C: 37.1%
Second compound 0.000949 µM, first compound 0.001 µM
  viability, T/C: 33.2%
Second compound 0.000949 µM, first compound 0.00316 µM
  viability, T/C: 25.4%
Second compound 0.000949 µM, first compound 0.01 µM
  viability, T/C: 25.5%
[1]
  viability, T/C: 16.9%
[2]
  viability, T/C: 14.4%
Second compound 0.003 µM, first compound 0.000316 µM
  viability, T/C: 23.3%
Second compound 0.003 µM, first compound 0.001 µM
  viability, T/C: 20.4%
Second compound 0.003 µM, first compound 0.00316 µM
  viability, T/C: 18.3%
Second compound 0.003 µM, first compound 0.01 µM
  viability, T/C: 15.1%
[7]
  viability, T/C: 11.4%
[8]
  viability, T/C: 8.13%
Second compound 0.00949 µM, first compound 0.000316 µM
  viability, T/C: 19.9%
Second compound 0.00949 µM, first compound 0.001 µM
  viability, T/C: 17.6%
Second compound 0.00949 µM, first compound 0.00316 µM
  viability, T/C: 15.4%
Second compound 0.00949 µM, first compound 0.01 µM
  viability, T/C: 11.2%
[13]
  viability, T/C: 7.74%
[14]
  viability, T/C: 7.71%
Second compound 0.03 µM, first compound 0.000316 µM
  viability, T/C: 13.6%
Second compound 0.03 µM, first compound 0.001 µM
  viability, T/C: 12.3%
Second compound 0.03 µM, first compound 0.00316 µM
  viability, T/C: 11.5%
Second compound 0.03 µM, first compound 0.01 µM
  viability, T/C: 10.1%
[19]
  viability, T/C: 8.37%
[20]
  viability, T/C: 6.86%
Second compound 0.0949 µM, first compound 0.000316 µM
  viability, T/C: 9.34%
Second compound 0.0949 µM, first compound 0.001 µM
  viability, T/C: 9.41%
Second compound 0.0949 µM, first compound 0.00316 µM
  viability, T/C: 9.4%
Second compound 0.0949 µM, first compound 0.01 µM
  viability, T/C: 8.96%
[25]
  viability, T/C: 8.01%
[26]
  viability, T/C: 7.66%
Second compound 0.3 µM, first compound 0.000316 µM
  viability, T/C: 8.85%
Second compound 0.3 µM, first compound 0.001 µM
  viability, T/C: 9.23%
Second compound 0.3 µM, first compound 0.00316 µM
  viability, T/C: 9.13%
Second compound 0.3 µM, first compound 0.01 µM
  viability, T/C: 7.72%
[31]
  viability, T/C: 8.58%
[32]
  viability, T/C: 6.19%

## C[C@@H](NC(=O)c1ncnc(N)c1Cl)c1ncc(C(=O)Nc2cc(C(F)(F)F)c(Cl)cn2)s1 + CCn1c(-c2cc(N3CCN(C)CC3)cnc2C(C)OC)c2c3cc(ccc31)-c1csc(n1)CC(NC(=O)C1CC1C)C(=O)N1CCCC(N1)C(=O)OCC(C)(C)C2
Second compound 0.000949 µM
  IC50: 0.0316 µM
Second compound 0.003 µM
  IC50: < 0.0316 µM
Second compound 0.00949 µM
  IC50: < 0.0316 µM
Second compound 0.03 µM
  IC50: < 0.0316 µM
Second compound 0.0949 µM
  IC50: < 0.0316 µM
Second compound 0.3 µM
  IC50: < 0.0316 µM
[1]
  viability, T/C: 41.3%
[2]
  viability, T/C: 46.5%
[3]
  viability, T/C: 55%
[4]
  viability, T/C: 51.5%
[5]
  viability, T/C: 45.7%
[6]
  viability, T/C: 38%
[7]
  viability, T/C: 22.9%
[8]
  viability, T/C: 24.4%
[9]
  viability, T/C: 26.9%
[10]
  viability, T/C: 28.8%
[11]
  viability, T/C: 24.8%
[12]
  viability, T/C: 24.8%
[13]
  viability, T/C: 15.6%
[14]
  viability, T/C: 16.8%
[15]
  viability, T/C: 17.4%
[16]
  viability, T/C: 18.4%
[17]
  viability, T/C: 18.9%
[18]
  viability, T/C: 18.6%
[19]
  viability, T/C: 14%
[20]
  viability, T/C: 14.2%
[21]
  viability, T/C: 16.5%
[22]
  viability, T/C: 16.2%
[23]
  viability, T/C: 15.4%
[24]
  viability, T/C: 12.7%
[25]
  viability, T/C: 10%
[26]
  viability, T/C: 11%
[27]
  viability, T/C: 10.4%
[28]
  viability, T/C: 11.8%
[29]
  viability, T/C: 16.1%
[30]
  viability, T/C: 10.8%
[31]
  viability, T/C: 9.44%
[32]
  viability, T/C: 10.4%
[33]
  viability, T/C: 11.2%
[34]
  viability, T/C: 11%
[35]
  viability, T/C: 13.1%
[36]
  viability, T/C: 11.4%
